Data taken from ChEMBL document CHEMBL4346705, “(±)-trans-Dihydronarciclasine and (±)-trans-dihydrolycoricidine analogues modified in their ring A: Evaluation of their anticancer activity and a SAR study” (2019).

Assays:
Format in all cases: functional
PC-3 = assay: Antiproliferative activity against human PC3 cells assessed as cell viability at 10^-5 M incubated for 48 hrs by sulforhodamine B assay relative to control; conditions: PC-3, 48 h, read-out: Activity
HCT-116 = assay: Antiproliferative activity against human HCT116 cells assessed as cell viability at 10^-5 M incubated for 48 hrs by sulforhodamine B assay relative to control; conditions: HCT-116, 48 h, read-out: Activity
IGROV-1 = assay: Antiproliferative activity against human IGROV1 cells assessed as cell viability at 10^-5 M incubated for 48 hrs by sulforhodamine B assay relative to control; conditions: IGROV-1, 48 h, read-out: Activity
RPMI-8226 = assay: Antiproliferative activity against human RPMI8226 cells assessed as cell viability at 10^-5 M incubated for 48 hrs by sulforhodamine B assay relative to control; conditions: RPMI-8226, 48 h, read-out: Activity
OVCAR-5 = assay: Antiproliferative activity against human OVCAR5 cells assessed as cell viability at 10^-5 M incubated for 48 hrs by sulforhodamine B assay relative to control; conditions: OVCAR-5, 48 h, read-out: Activity
T47D = assay: Antiproliferative activity against human T47D cells assessed as cell viability at 10^-5 M incubated for 48 hrs by sulforhodamine B assay relative to control; conditions: read-out: Activity
A549 = assay: Antiproliferative activity against human A549 cells assessed as cell viability at 10^-5 M incubated for 48 hrs by sulforhodamine B assay relative to control; conditions: A549, 48 h, read-out: Activity
SNB-19 = assay: Antiproliferative activity against human SNB19 cells assessed as cell viability at 10^-5 M incubated for 48 hrs by sulforhodamine B assay relative to control; conditions: SNB-19, 48 h, read-out: Activity
SK-OV-3 = assay: Antiproliferative activity against human SKOV3 cells assessed as cell viability at 10^-5 M incubated for 48 hrs by sulforhodamine B assay relative to control; conditions: SK-OV-3, 48 h, read-out: Activity
DU-145 = assay: Antiproliferative activity against human DU145 cells assessed as cell viability at 10^-5 M incubated for 48 hrs by sulforhodamine B assay relative to control; conditions: DU-145, 48 h, read-out: Activity
HL-60(TB) = assay: Antiproliferative activity against human HL-60(TB) cells assessed as cell viability at 10^-5 M incubated for 48 hrs by sulforhodamine B assay relative to control; conditions: HL-60, 48 h, read-out: Activity
HOP-92 = assay: Antiproliferative activity against human HOP92 cells assessed as cell viability at 10^-5 M incubated for 48 hrs by sulforhodamine B assay relative to control; conditions: HOP-92, 48 h, read-out: Activity
HCC 2998 = assay: Antiproliferative activity against human HCC2998 cells assessed as cell viability at 10^-5 M incubated for 48 hrs by sulforhodamine B assay relative to control; conditions: HCC 2998, 48 h, read-out: Activity
M14 = assay: Antiproliferative activity against human M14 cells assessed as cell viability at 10^-5 M incubated for 48 hrs by sulforhodamine B assay relative to control; conditions: M14, 48 h, read-out: Activity
786-0 = assay: Antiproliferative activity against human 786-0 cells assessed as cell viability at 10^-5 M incubated for 48 hrs by sulforhodamine B assay relative to control; conditions: 786-0, 48 h, read-out: Activity
MDA-MB-435 = assay: Antiproliferative activity against human MDA-MB-435 cells assessed as cell viability at 10^-5 M incubated for 48 hrs by sulforhodamine B assay relative to control; conditions: MDA-MB-435, 48 h, read-out: Activity
HCT-15 = assay: Antiproliferative activity against human HCT15 cells assessed as cell viability at 10^-5 M incubated for 48 hrs by sulforhodamine B assay relative to control; conditions: HCT-15, 48 h, read-out: Activity
SF-268 = assay: Antiproliferative activity against human SF268 cells assessed as cell viability at 10^-5 M incubated for 48 hrs by sulforhodamine B assay relative to control; conditions: SF-268, 48 h, read-out: Activity
Malme-3M = assay: Antiproliferative activity against human MALME-3M cells assessed as cell viability at 10^-5 M incubated for 48 hrs by sulforhodamine B assay relative to control; conditions: read-out: Activity
UACC-257 = assay: Antiproliferative activity against human UACC257 cells assessed as cell viability at 10^-5 M incubated for 48 hrs by sulforhodamine B assay relative to control; conditions: UACC-257, 48 h, read-out: Activity
OVCAR-3 = assay: Antiproliferative activity against human OVCAR3 cells assessed as cell viability at 10^-5 M incubated for 48 hrs by sulforhodamine B assay relative to control; conditions: OVCAR-3, 48 h, read-out: Activity
CCRF-CEM = assay: Antiproliferative activity against human CCRF-CEM cells assessed as cell viability at 10^-5 M incubated for 48 hrs by sulforhodamine B assay relative to control; conditions: read-out: Activity
K562 = assay: Antiproliferative activity against human K562 cells assessed as cell viability at 10^-5 M incubated for 48 hrs by sulforhodamine B assay relative to control; conditions: K562, 48 h, read-out: Activity
NCI-H460 = assay: Antiproliferative activity against human NCI-H460 cells assessed as cell viability at 10^-5 M incubated for 48 hrs by sulforhodamine B assay relative to control; conditions: NCI-H460, 48 h, read-out: Activity
ACHN = assay: Antiproliferative activity against human ACHN cells assessed as cell viability at 10^-5 M incubated for 48 hrs by sulforhodamine B assay relative to control; conditions: read-out: Activity
SW-620 = assay: Antiproliferative activity against human SW620 cells assessed as cell viability at 10^-5 M incubated for 48 hrs by sulforhodamine B assay relative to control; conditions: SW-620, 48 h, read-out: Activity
UO-31 = assay: Antiproliferative activity against human UO31 cells assessed as cell viability at 10^-5 M incubated for 48 hrs by sulforhodamine B assay relative to control; conditions: UO-31, 48 h, read-out: Activity
U-251 = assay: Antiproliferative activity against human U251 cells assessed as cell viability at 10^-5 M incubated for 48 hrs by sulforhodamine B assay relative to control; conditions: U-251, 48 h, read-out: Activity
SR = assay: Antiproliferative activity against human SR cells assessed as cell viability at 10^-5 M incubated for 48 hrs by sulforhodamine B assay relative to control; conditions: read-out: Activity
COLO 205 = assay: Antiproliferative activity against human COLO205 cells assessed as cell viability at 10^-5 M incubated for 48 hrs by sulforhodamine B assay relative to control; conditions: COLO 205, 48 h, read-out: Activity
BT-549 = assay: Antiproliferative activity against human BT549 cells assessed as cell viability at 10^-5 M incubated for 48 hrs by sulforhodamine B assay relative to control; conditions: BT-549, 48 h, read-out: Activity
TK-10 = assay: Antiproliferative activity against human TK10 cells assessed as cell viability at 10^-5 M incubated for 48 hrs by sulforhodamine B assay relative to control; conditions: TK-10, 48 h, read-out: Activity

O=C1NC2C(CC(O)C(O)C2O)c2cc3c(cc21)OCCO3 (racemic) showed a viability at 10 µM (PC-3) of 103%, a viability at 10 µM (HCT-116) of 95.5% and a viability at 10 µM (IGROV-1) of 103%. It also gave a viability at 10 µM (RPMI-8226) of 107%, a viability at 10 µM (OVCAR-5) of 107% and a viability at 10 µM (T47D) of 104%. The viability at 10 µM (A549) was 109%, the viability at 10 µM (SNB-19) was 102% and the viability at 10 µM (SK-OV-3) was 103%. For the same molecule, the viability at 10 µM (DU-145) was 114%, the viability at 10 µM (HL-60(TB)) was 101% and the viability at 10 µM (HOP-92) was 101%. The viability at 10 µM (HCC 2998) was 109%, the viability at 10 µM (M14) was 98.9% and the viability at 10 µM (786-0) was 102%. For the same molecule, the viability at 10 µM (MDA-MB-435) was 107%, the viability at 10 µM (HCT-15) was 103% and the viability at 10 µM (SF-268) was 101%. The viability at 10 µM (Malme-3M) was 105%, the viability at 10 µM (UACC-257) was 107% and the viability at 10 µM (OVCAR-3) was 111%. It also gave a viability at 10 µM (CCRF-CEM) of 106%, a viability at 10 µM (K562) of 104% and a viability at 10 µM (NCI-H460) of 107%. For the same molecule, the viability at 10 µM (ACHN) was 105%, the viability at 10 µM (SW-620) was 104% and the viability at 10 µM (UO-31) was 93.2%. The viability at 10 µM (U-251) was 101%, the viability at 10 µM (SR) was 107% and the viability at 10 µM (COLO 205) was 111%. It also gave a viability at 10 µM (BT-549) of 98.3% and a viability at 10 µM (TK-10) of 103%.
